Results reported in patent US7880025B2, “Ruthenium silyl-arene complex , and method for production thereof” (Takasago International Corporation, priority 2009, dated 2011).

Experiment: Solubility of [RuCl2(arene)]2 complexes in 100 ml of solvent at 25° C. in various solvents

Substance: [RuCl2(mesitylene)]2
- solubility in 100 ml of solvent, Acetone (solvent Acetone): 0.01 g/100 ml
- solubility in 100 ml of solvent, Chloroform (solvent Chloroform): 0.3 g/100 ml
- solubility in 100 ml of solvent, Methanol (solvent Methanol): 0.03 g/100 ml
- solubility in 100 ml of solvent, THF (solvent THF): 0.5 g/100 ml
- solubility in 100 ml of solvent, Toluene (solvent Toluene): 0.2 g/100 ml
